Counter-ions that a name gives are not always drawn.
Biological target: T1, EGFR (L858R & T790M) (Homo sapiens, UniProt P00533, L858R/T790M)
T1 construct: GST; purchased Proqinase
Experiment: EGFR (L858R & T790M) inhibition assay, HTRF method
Details: biochemical HTRF; EGFR (T790M/L858R) 2.5 nM, ATP 5 μM, 60 min room temperature
Procedure: Example 25: Biological Activity: EGFR T790M Assay Protocol
The objective of the experiment is to find the IC50 for the compounds using HTRF method.
Reagents for Enzyme Assay:
1. Enzyme Assay Buffer: 60 mM HEPES (pH 7.4), 50 mM NaCl, 20 mM MgCl2, 5 mM MnCl2, filter using 0.2 µm pore size, store at 4° C.
Supplements (add fresh to the enzyme buffer): Make 1M DTT stock, 5% BSA stock and 0.1M Na3OV4 stored at 4° C. Enzyme assay buffer 50 ml, 1 M DTT 100 μl, 5% BSA 500 μl, 0.1M Na3OV4 50 μl.
2. GST-hEGFR (L858R), active: EGFR (T790M/L858R), active (Proqinase), 3.6 μM stock; 2.5 nM in final assay.
3. Gastrin Precusor-Biotinylated: Gastrin precursor (Tyr87) biotinylated peptide (EEAY*GWM), Cell Signaling Tech 1310, Lot-7, Want final 0.5 μM in assay
4. ATP: 10 mM stock in 100 μl Enzyme assay buffer pH 7.4 prepared freshly, want 5 μM in final assay.
5. Test compounds: Dissolve powders in 100% DMSO to a final stock concentration of 10 mM (volume in μL to add for 10 mM=mg powder×10^5/MW). Final comp concentration in the assay plate is starting at 10 μM.
1. HTRF buffer: 50 mM Tris-HCl, pH-7.5, 100 mM NaCl, 0.1% BSA, 0.05% Tween20, 0.5 mM EDTA, filter using 0.2 µm pore size, store at 4° C.
Phycolink® Streptavidin-Allophycocyanin (SA-APC) Prozyme, Cat. #PJ25S, Lot #896 085, 2.06 mg/mL, APC concentration is 11.6 μM, streptavidin concentration is 15.5 μM. Want 12 nM final in assay (based on streptavidin concentration).
2. Europium-W1024-PT-66 Anti Phospho Tyrosine Antibody: Perkin Elmer (AD0068), monoclonal IgG1 that recognizes phospho tyrosine peptide 100 μg/ml stock. Want 0.1 nM final in assay.
• 1. Make the compound dilution by TECAN as per the above scheme. • 2. Add 16 μl of diluted compound to the assay plate by using TECAN • 3. Add 10 μl of enzyme mix to each well except mins. • 4. Add 20 μl of substrate and ATP mix into each well of the assay plate manually. • 5. Incubate the plate at room temperature for 60 min with shaking. • 6. Meanwhile prepare the HTRF mix and add 75 μl to the HTRF plate. • 7. When the incubation is over, transfer 10 μl of the reaction mixture to the HTRF assay plate and incubate for 30 min at room temperature with shaking. • 8. Take the reading in Pherastar (ext 337 nm, em 665 & 620 nm). • 9. Analyze the results using Graphpad prism after calculation the z factor, signal window and % inhibition to get the IC50.
Compounds having IC50<10 nM are designated as “A”; 10-100 nM are designated as “B”; and >100 nM as “C”.

T1 sequence (P00533 25-1210 T790M/L858R): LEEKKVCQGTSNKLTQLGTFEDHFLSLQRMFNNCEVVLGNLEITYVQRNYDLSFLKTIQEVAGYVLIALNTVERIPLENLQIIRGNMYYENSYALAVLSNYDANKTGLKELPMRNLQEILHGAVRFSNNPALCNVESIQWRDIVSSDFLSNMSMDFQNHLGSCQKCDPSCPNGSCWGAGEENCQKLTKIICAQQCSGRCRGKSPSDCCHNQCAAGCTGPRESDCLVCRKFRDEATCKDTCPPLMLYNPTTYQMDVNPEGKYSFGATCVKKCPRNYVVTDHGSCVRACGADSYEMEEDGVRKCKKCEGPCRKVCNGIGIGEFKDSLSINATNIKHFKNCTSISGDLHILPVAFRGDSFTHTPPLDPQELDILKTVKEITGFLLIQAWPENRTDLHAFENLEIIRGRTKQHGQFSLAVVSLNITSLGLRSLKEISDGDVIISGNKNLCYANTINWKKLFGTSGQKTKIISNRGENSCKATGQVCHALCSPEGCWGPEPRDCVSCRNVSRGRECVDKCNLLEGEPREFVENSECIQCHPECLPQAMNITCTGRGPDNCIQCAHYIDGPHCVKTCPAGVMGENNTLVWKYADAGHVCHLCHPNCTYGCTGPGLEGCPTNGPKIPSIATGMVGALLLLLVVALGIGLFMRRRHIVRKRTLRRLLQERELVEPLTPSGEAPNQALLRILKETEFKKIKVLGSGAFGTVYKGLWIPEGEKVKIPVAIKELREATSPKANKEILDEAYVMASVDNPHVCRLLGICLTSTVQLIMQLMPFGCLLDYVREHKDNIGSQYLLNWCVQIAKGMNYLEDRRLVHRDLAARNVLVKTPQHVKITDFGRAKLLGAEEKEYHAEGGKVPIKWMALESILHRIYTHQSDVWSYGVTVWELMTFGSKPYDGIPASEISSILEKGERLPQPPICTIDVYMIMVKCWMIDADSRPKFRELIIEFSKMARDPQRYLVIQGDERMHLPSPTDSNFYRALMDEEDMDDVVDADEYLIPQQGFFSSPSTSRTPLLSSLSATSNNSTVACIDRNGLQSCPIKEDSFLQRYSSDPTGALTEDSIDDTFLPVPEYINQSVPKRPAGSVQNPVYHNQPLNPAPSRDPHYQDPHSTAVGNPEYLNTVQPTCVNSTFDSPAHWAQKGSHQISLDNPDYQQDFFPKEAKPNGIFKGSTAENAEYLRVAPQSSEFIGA

Row | SMILES | IC50
1 | C=CC(=O)Nc1cc(Nc2nc(Nc3cnn(C)c3)ncc2Cl)ccc1F [Compound I-66, N-(5-((5-chloro-2-((1-methyl-1H-pyrazol-4-yl)amino)pyrimidin-4-yl)amino)-2-fluorophenyl)acrylamide] | 10 to 100 nM
2 | C=CC(=O)Nc1cccc(Nc2nc(Nc3cnn(CC4CC4)c3)ncc2Cl)c1 [Compound I-7, N-(3-((5-chloro-2-((1-(cyclopropylmethyl)-1H-pyrazol-4-yl)amino)pyrimidin-4-yl)amino)phenyl)acrylamide] | 10 to 100 nM
3 | C=CC(=O)NC1CCCC(Nc2nc(Nc3cc(COC)n(C)n3)ncc2Cl)C1 (centres unmarked) [Compound I-98, N-(3-((5-chloro-2-((5-(methoxymethyl)-1-methyl-1H-pyrazol-3-yl)amino)pyrimidin-4-yl)amino)cyclohexyl)acrylamide] | > 100 nM
4 | C=CC(=O)N[C@@H]1CCCC[C@H](Nc2nc(Nc3cnn(C)c3)ncc2Cl)C1 (single isomer, unassigned) [I-113 (Isomer 2)] | 10 to 100 nM
5 | C=CC(=O)Nc1ccc(F)c(Nc2nc(Nc3cc(C)ns3)ncc2Cl)c1 [Compound I-117, N-(3-((5-chloro-2-((3-methylisothiazol-5-yl)amino)pyrimidin-4-yl)amino)-4-fluorophenyl)acrylamide] | < 10 nM
6 | Cc1cc(Nc2ncc(Cl)c(NC3CCCC(NC(=O)/C=C/CN(C)C)C3)n2)sn1 (centres unmarked) [Compound I-115, (E)-N-(3-((5-chloro-2-((3-methylisothiazol-5-yl)amino)pyrimidin-4-yl)amino)cyclohexyl)-4-(dimethylamino)but-2-enamide] | > 100 nM
7 | C=CC(=O)Nc1cccc(Oc2nc(Nc3cnn(C)c3)ncc2Cl)c1 [Compound I-85, N-(3-((5-chloro-2-((1-methyl-1H-pyrazol-4-yl)amino)pyrimidin-4-yl)oxy)phenyl)acrylamide] | < 10 nM
8 | C=CC(=O)Nc1cccc(Nc2nc(Nc3cnn(C4COC4)c3)ncc2Cl)c1 [Compound I-31, N-(3-((5-chloro-2-((1-(oxetan-3-yl)-1H-pyrazol-4-yl)amino)pyrimidin-4-yl)amino)phenyl)acrylamide] | 10 to 100 nM
9 | C=CC(=O)N1CCCC(Oc2nc(Nc3cnn(C)c3)ncc2Cl)C1 (single isomer, unassigned) [II-12 (Enantiomer 1), 1-(3-((5-chloro-2-((1-methyl-1H-pyrazol-4-yl)amino)pyrimidin-4-yl)oxy)piperidin-1-yl)prop-2-en-1-one] | > 100 nM
10 | C=CC(=O)N1CCC(Oc2nc(Nc3cnn(C)c3)ncc2Cl)C1 (single isomer, unassigned) [II-11 (Enantiomer 2), 1-(3-((5-chloro-2-((1-methyl-1H-pyrazol-4-yl)amino)pyrimidin-4-yl)oxy)pyrrolidin-1-yl)prop-2-en-1-one] | > 100 nM
11 | C=CC(=O)Nc1cccc(Nc2nc(Nc3cnn(C)c3)ncc2Cl)c1 [Compound I-19, N-(3-((5-chloro-2-((1-methyl-1H-pyrazol-4-yl)amino)pyrimidin-4-yl)amino)phenyl)acrylamide] | < 10 nM
12 | C=CC(=O)Nc1cccc(Nc2nc(Nc3cc(CN4CCOCC4)n(C)n3)ncc2Cl)c1 [Compound I-46, N-(3-((5-chloro-2-((1-methyl-5-(morpholinomethyl)-1H-pyrazol-3-yl)amino)pyrimidin-4-yl)amino)phenyl)acrylamide] | > 100 nM
13 | CN1CCC(n2cc(Nc3ncc(Cl)c(Nc4ccc(F)c(NC(=O)C=C5CCCCC5)c4)n3)cn2)CC1 [Compound I-27, N-(5-((5-chloro-2-((1-(1-methylpiperidin-4-yl)-1H-pyrazol-4-yl)amino)pyrimidin-4-yl)amino)-2-fluorophenyl)-2-cyclohexylideneacetamide] | > 100 nM
14 | C=CC(=O)Nc1cccc(C(C)Nc2nc(Nc3cnn(C)c3)ncc2Cl)c1 (centres unmarked) [Compound I-56, N-(3-(1-((5-chloro-2-((1-methyl-1H-pyrazol-4-yl)amino)pyrimidin-4-yl)amino)ethyl)phenyl)acrylamide] | > 100 nM
15 | C=CC(=O)Nc1cccc(Nc2nc(Nc3cc(CN4CCC4)n(C)n3)ncc2Cl)c1 [Compound I-42, N-(3-((2-((5-(azetidin-1-ylmethyl)-1-methyl-1H-pyrazol-3-yl)amino)-5-chloropyrimidin-4-yl)amino)phenyl)acrylamide, acetate salt] | > 100 nM
16 | C=CC(=O)Nc1cccc(Nc2nc(Nc3cn(C)nc3C)ncc2Cl)n1 (single isomer, unassigned) [Compound I-73, N-(6-((5-chloro-2-((1,3-dimethyl-1H-pyrazol-4-yl)amino)pyrimidin-4-yl)amino)pyridin-2-yl)acrylamide] | 10 to 100 nM
17 | C=CC(=O)Nc1cccc(Oc2nc(Nc3cnn(CCN(C)C)c3)ncc2Cl)c1 [Compound I-80, N-(3-((5-chloro-2-((1-(2-(dimethylamino)ethyl)-1H-pyrazol-4-yl)amino)pyrimidin-4-yl)oxy)phenyl)acrylamide] | 10 to 100 nM
18 | C=CC(=O)Nc1cccc(Oc2nc(Nc3c(C)nn(C)c3C)ncc2Cl)c1 [Compound I-84, N-(3-((5-chloro-2-((1,3,5-trimethyl-1H-pyrazol-4-yl)amino)pyrimidin-4-yl)oxy)phenyl)acrylamide] | > 100 nM
19 | C=CC(=O)N1CCC(Oc2nc(Nc3cnn(C)c3)ncc2Cl)C1 (single isomer, unassigned) [II-10 (Enantiomer 1), 1-(3-((5-chloro-2-((1-methyl-1H-pyrazol-4-yl)amino)pyrimidin-4-yl)oxy)pyrrolidin-1-yl)prop-2-en-1-one] | > 100 nM
20 | C=CC(=O)Nc1cccc(Nc2nc(Nc3cnn(CC(C)(C)O)c3)ncc2Cl)c1 [Compound I-17, N-(3-((5-chloro-2-((1-(2-hydroxy-2-methylpropyl)-1H-pyrazol-4-yl)amino)pyrimidin-4-yl)amino)phenyl)acrylamide] | > 100 nM
21 | C=CC(=O)Nc1ccc(F)c(Nc2nc(Nc3ncc(Cl)s3)ncc2Cl)c1 [Compound I-120, N-(3-((5-chloro-2-((5-chlorothiazol-2-yl)amino)pyrimidin-4-yl)amino)-4-fluorophenyl)acrylamide] | > 100 nM
22 | C=CC(=O)Nc1cccc(Nc2nc(Nc3cnn(C4CCN(C)CC4)c3)ncc2F)c1 [Compound I-18, N-(3-((5-fluoro-2-((1-(1-methylpiperidin-4-yl)-1H-pyrazol-4-yl)amino)pyrimidin-4-yl)amino)phenyl)acrylamide] | 10 to 100 nM
23 | C=CC(=O)Nc1cccc(Nc2nc(Nc3cnn(CCO)c3)ncc2Cl)c1 [Compound I-21, N-(3-((5-chloro-2-((1-(2-hydroxyethyl)-1H-pyrazol-4-yl)amino)pyrimidin-4-yl)amino)phenyl)acrylamide] | < 10 nM
24 | C=CC(=O)Nc1cccc(Nc2nc(Nc3cnn(C4CCN(C)CC4)c3)ncc2C)c1 [Compound I-13, N-(3-((5-methyl-2-((1-(1-methylpiperidin-4-yl)-1H-pyrazol-4-yl)amino)pyrimidin-4-yl)amino)phenyl)acrylamide] | 10 to 100 nM
25 | CN(C)C/C=C/C(=O)N[C@@H]1CCC[C@@H](CNc2nc(Nc3cnn(C)c3)ncc2Cl)C1 (single isomer, unassigned) [I-102 (diastereomer 1)] | > 100 nM
26 | C=CC(=O)Nc1ccc(OC2CCOC2)c(Nc2nc(Nc3cnn(C)c3)ncc2Cl)c1 (centres unmarked) [Compound I-54, N-(3-((5-chloro-2-((1-methyl-1H-pyrazol-4-yl)amino)pyrimidin-4-yl)amino)-4-((tetrahydrofuran-3-yl)oxy)phenyl)acrylamide] | > 100 nM
27 | C=CC(=O)NC1CCCC(Nc2nc(Nc3cnn(C)c3)ncc2Cl)C1 (centres unmarked) [Compound I-92, N-(3-((5-chloro-2-((1-methyl-1H-pyrazol-4-yl)amino)pyrimidin-4-yl)amino)cyclohexyl)acrylamide] | 10 to 100 nM
28 | C=CC(=O)N[C@H]1CCC[C@H](Nc2nc(Nc3cnn(C)c3)ncc2Cl)C1 (single isomer, unassigned) [I-107 (Enantiomer 2)] | > 100 nM
29 | C=CC(=O)Nc1cccc(Nc2nc(Nc3nnc(N4CCN(C)CC4)s3)ncc2Cl)c1 [Compound I-41, N-(3-((5-chloro-2-((5-(4-methylpiperazin-1-yl)-1,3,4-thiadiazol-2-yl)amino)pyrimidin-4-yl)amino)phenyl)acrylamide] | 10 to 100 nM

Reference: patent US10273224B2, “Substituted pyrimidine compounds, compositions and medicinal applications thereof” (JUBILANT BIOSYS LIMITED, priority 2013, dated 2019)
